Tests used:
CNS tumor cell line = assay: NCI in vitro anti-tumor screen, three-cell line evaluation (SRB protein assay), CNS; type: cell-based, human; conditions: sample concentration 5.00 E-05 Molar, 48 hour continuous drug exposure
human tumor cell lines = assay: NCI three-cell line evaluation, overall activity call; type: cell-based; conditions: three-cell line (lung, breast, CNS); 5.00 E-05 Molar
lung tumor cell line = assay: NCI in vitro anti-tumor screen, three-cell line evaluation (SRB protein assay), lung; type: cell-based, human; conditions: sample concentration 5.00 E-05 Molar, 48 hour continuous drug exposure
Experimental: The testing below was conducted by the United States Public Health Service, Department of Health and Human Services. The National Cancer Institute (NCl) in vitro anti-tumor screening test consists of about 60 human tumor cell lines against which compounds are tested at a minimum of 5 concentrations at 10 fold dilutions. A 48 hour continuous drug exposure protocol is used, and a sulforhodamine B (SRB) protein assay is used to estimate cell viability or growth.
(§1) Data for the compound shown in the attached FIG. 3 which was tested according to the National Cancer Institutes Developmental Theraputics Program (dose response curves) is shown in attached FIG. 13.

breast tumor cell line = assay: NCI in vitro anti-tumor screen, three-cell line evaluation (SRB protein assay), breast; type: cell-based, human; conditions: sample concentration 5.00 E-05 Molar, 48 hour continuous drug exposure
Experimental: The testing below was conducted by the United States Public Health Service, Department of Health and Human Services. […] A 48 hour continuous drug exposure protocol is used, and a sulforhodamine B (SRB) protein assay is used to estimate cell viability or growth.
as §1

With `CC[C@H](C)[C@H](NC(=O)[C@H](Cc1ccc(O)cc1)NCC(F)(F)F)C(=O)OC(C)(C)C` [S712619] the “Growth Percentages CNS” value (CNS tumor cell line) was −75%, the activity (human tumor cell lines) was “active” and the “Growth Percentages lung” value (lung tumor cell line) was −77%. The “Growth Percentages breast” value (breast tumor cell line) was −57%.

Source: patent publication US6794492B2, “Perfluoroalkyl compounds and their methods of use and manufacture” (Clemson University, priority 2000, dated 2004)
